Measurements reported in publication PMC12291464, “Modifying Antifungal Peptides as Safe Food Preservatives” (Journal of Agricultural and Food Chemistry, 2025).
≈ marks a conversion by molar mass, not a printed value. Entries after “also recorded” stand apart in the source; their conditions may differ. Like-named read-outs stand apart in the source and are kept apart here. Residues, ends and D or L forms follow the SMILES beside them.

How the values were obtained:
MRSA = tested on: MRSA
Description: (§1) A1163 was grown on potato dextrose agar (PDA) medium at 37 °C for 5 days, and then the conidia were scraped and suspended in PBS with 0.025% (v/v) Tween 20, counted using a hemocytometer, and kept at 4 °C. isolated from peanuts and Pe21 (both kindly provided by Dr. Edward Sionov, ARO, Israel) were grown on PDA medium at 25 °C for 5 days, and then the conidia were scraped and suspended in PBS with 0.025% Tween 20 and kept at 4 °C. RP and methicillin-resistant (MRSA) were grown on LB agar plates, and individual colonies were picked and grown in Mueller–Hinton (MH) broth overnight at 37 °C. was grown on PDA medium at 30 °C, and individual colonies were picked and grown in yeast extract peptone dextrose (YPD) media overnight at 30 °C. All fungal and bacteria strains were maintained at −80 °C in 50% (v/v) glycerol stock.
(§2) For filamentous fungi strains, serial dilutions of 100 μL ranged from 100 to 0.78 μM for each peptide in a 96 well plate using RPMI1640 with 165 μM MOPS. A total of 80 μL of inoculum was suspended with a conidia load of 5 × 10^3 CFU/mL (final density of 2 × 10^3 CFU/mL), and 20 μL of resazurin was diluted in RPMI1640 solution of 0.02% [final concentration of 0.0002% (w/v)]. In the control, 100 μL of treatment was replaced by the same volume with medium, while the negative control was 180 μL of the medium and 20 μL of resazurin solution. Plates were incubated at 37 °C for and 25 °C for and for 24 h. The results were quantified by measuring absorbance at 570 nm with a microplate reader (Tecan). The mean absorbance values were used in subsequent calculations. The growth of resazurin reduction and growth inhibition was calculated using the following normalization: % growth=100−% reduction=abs of test agent−abs of untreated control/abs of reduced resazurin−abs of untreated control The MIC was defined as the lowest concentration of the peptide that inhibited fungal growth by 90%, allowing for only 10% of the normal growth. For bacterial and yeast strains studies, serial dilutions of 100 μL ranged from 100 to 0.78 μM for each peptide in a 96 well plate using MH media for bacteria and YPD for yeast. A total of 100 μL of the microbe in suitable media (5 × 10^5 CFU/mL) was inoculated in each well. In the untreated well (e.g., control), 100 μL of treatment was replaced by the same volume with medium, while in the negative control, media were only without microbes and peptides. After 24 h of incubation at 37 °C for bacteria and 30 °C for yeast, plates were read at 595 nm and MIC was defined as the lowest concentration of peptide that reduced the growth of the microbe to 10% growth.

E. coli = tested on: E. coli
Description: as §1, §2

A. Niger = settings: 24 h
Description: as §1, §2

A. fumigatus = settings: 24 h
Description: as §1, §2

P. expansum = settings: 24 h
Description: as §1, §2

chymotrypsin = chymotrypsin (Bos taurus, UniProt P00766); assay: Digestion examination of the peptides by chymotrypsin
Description: Peptides were dissolved in 1 mL of 100 μM NH4HCO3 to a final concentration of 4 mM, followed by the addition of 1 μL chymotrypsin (1 mg/mL), and were incubated at 37 °C and 150 rpm. At each time point, 75 μL of the solution was transferred to 90 °C for inactivation of the enzyme. After the peptides were frozen in liquid nitrogen and lyophilized, they were dissolved in DMSO and were analyzed in HPLC using Analytic Phenomenex Luna C18 (5 μm, 4.6 × 250 mm) with standard RP-HPLC conditions. The area under curve (AUC) was calculated at each time point and normalized to time = 0.
4 Peptide’s secondary structure and digestibility. (A) CD spectra of the peptides (50 μM) in DDW was measured using a J-1100 spectropolarimeter (Jasco), with the following parameters: wavelength range of 190–260 nm, bandwidth of 1 nm, data pitch of 0.1 nm, and three accumulations. A baseline spectrum was recorded using a 0.1 cm quartz cuvette filled with DDW and subtracted from the peptide spectrum to obtain the corrected CD spectrum. […] The area under the curve (AUC) was calculated at each time point and normalized to t = 0. The y axis ranges from 100%, meaning not digested at all, to 0%, meaning fully digested.

[1] = MH media, 5 × 10^5 CFU/mL, 24 h at 37 °C, read at 595 nm, MIC = growth reduced to 10%, average ± SE, 3 biological repeats in triplicates
[2] = RPMI1640 with MOPS, resazurin, absorbance 570 nm, MIC = lowest concentration inhibiting growth by 90%, average ± SE, 3 biological repeats in triplicates

| Compound | MIC Values, MRSA (MRSA; [1]) | MIC Values, E. coli (E. coli; [1]) | MIC Values, A. Niger (A. Niger; [2]) | MIC Values, A. fumigatus (A. fumigatus; [2]) | MIC Values, P. expansum (P. expansum; [2]) | digestion by chymotrypsin (chymotrypsin) | MIC Values, MRSA (MRSA) | MIC Values, E. coli (E. coli) | MIC Values, MRSA (MRSA; 24 h) | MIC Values, E. coli (E. coli; 24 h) | MIC Values, A. Niger (A. Niger) | MIC Values, A. fumigatus (A. fumigatus) | MIC Values, P. expansum (P. expansum) |
| --- | --- | --- | --- | --- | --- | --- | --- | --- | --- | --- | --- | --- | --- |
| CC[C@H](C)[C@H](NC(=O)[C@H](CCCCN)NC(=O)[C@H](CCCCN)NC(=O)[C@H](Cc1ccccc1)NC(=O)[C@H](CC(C)C)NC(=O)[C@H](CCCCN)NC(=O)[C@H](CCCCN)NC(=O)[C@H](CC(C)C)NC(=O)[C@H](Cc1ccc(O)cc1)NC(=O)[C@H](CCCCN)NC(=O)[C@H](CC(C)C)NC(=O)[C@@H](NC(=O)[C@H](CCCCN)NC(=O)[C@H](CCCCN)NC(=O)[C@H](Cc1ccccc1)NC(=O)[C@H](CC(C)C)NC(=O)[C@H](CCCCN)NC(=O)[C@@H](N)CCCCN)[C@@H](C)CC)C(=O)N[C@@H](CC(C)C)C(=O)N[C@@H](CCCCN)C(=O)N[C@@H](Cc1ccc(O)cc1)C(=O)N[C@@H](CC(C)C)C(N)=O [BP100 Double] (H-KKLFKKILKYLKKLFKKILKYL-NH2) | >200 µM | >200 µM | 5 ± 1 µM (≈ 14.1 µg/mL) | 3 ± 0.5 µM (≈ 8.47 µg/mL) | 2 ± 0 µM (≈ 5.65 µg/mL) | less prone for digestions; also recorded: not digested | – | – | – | – | – | – | – |
| CC[C@H](C)[C@H](NC(=O)[C@H](CCCCN)NC(=O)[C@H](CCCCN)NC(=O)[C@H](Cc1ccccc1)NC(=O)[C@H](CC(C)C)NC(=O)[C@H](CCCCN)NC(=O)[C@@H](N)Cc1ccccc1)C(=O)N[C@@H](CC(C)C)C(=O)N[C@@H](CCCCN)C(=O)N[C@@H](Cc1ccc(O)cc1)C(=O)N[C@@H](CC(C)C)C(N)=O [BP100 F1K] | 3 ± 1 µM (≈ 4.32 µg/mL) | 3 ± 1 µM (≈ 4.32 µg/mL) | 42 ± 8 µM (≈ 60.5 µg/mL) | 10 ± 2 µM (≈ 14.4 µg/mL) | 6 ± 0 µM (≈ 8.64 µg/mL) | – | – | – | – | – | – | – | – |
| CC[C@H](C)[C@H](N)C(=O)N[C@@H](CCCCN)C(=O)N[C@@H](CC(C)C)C(=O)N[C@@H](Cc1ccccc1)C(=O)N[C@@H](CCCCN)C(=O)N[C@@H](CCCCN)C(=O)N[C@H](C(=O)N[C@@H](CC(C)C)C(=O)N[C@@H](CCCCN)C(=O)N[C@@H](Cc1ccc(O)cc1)C(=O)N[C@@H](CC(C)C)C(N)=O)[C@@H](C)CC [BP100 I1K] | 3 ± 0 µM (≈ 4.22 µg/mL) | 3 ± 1 µM (≈ 4.22 µg/mL) | 33 ± 8 µM (≈ 46.4 µg/mL) | 13 ± 0 µM (≈ 18.3 µg/mL) | 8 ± 2 µM (≈ 11.2 µg/mL) | – | – | – | – | – | – | – | – |
| CC[C@H](C)[C@H](NC(=O)[C@H](CCCCN)NC(=O)[C@H](CCCCN)NC(=O)[C@H](Cc1ccccc1)NC(=O)[C@H](CC(C)C)NC(=O)[C@H](CCCCN)NC(=O)[C@@H](N)CC(C)C)C(=O)N[C@@H](CC(C)C)C(=O)N[C@@H](CCCCN)C(=O)N[C@@H](Cc1ccc(O)cc1)C(=O)N[C@@H](CC(C)C)C(N)=O [BP100 L1K] | 3 ± 0 µM (≈ 4.22 µg/mL) | 3 ± 1 µM (≈ 4.22 µg/mL) | 33 ± 8 µM (≈ 46.4 µg/mL) | 13 ± 0 µM (≈ 18.3 µg/mL) | 8 ± 2 µM (≈ 11.2 µg/mL) | – | – | – | – | – | – | – | – |
| CC[C@H](C)[C@H](NC(=O)[C@H](CCCCN)NC(=O)[C@H](CCCCN)NC(=O)[C@H](Cc1ccccc1)NC(=O)[C@H](CC(C)C)NC(=O)[C@H](CCCCN)NC(=O)[C@@H](N)CCCCN)C(=O)N[C@@H](CC(C)C)C(=O)N[C@@H](CCCCN)C(=O)N[C@@H](Cc1ccc(O)cc1)C(=O)N[C@@H](CC(C)C)C(N)=O [BP100, reference compound] | – | – | 44 ± 8 µM (≈ 62.5 µg/mL) | 6 ± 0 µM (≈ 8.53 µg/mL) | 13 ± 6 µM (≈ 18.5 µg/mL) | – | 17 ± 4 µM (≈ 24.2 µg/mL) | 3 ± 2 µM (≈ 4.26 µg/mL) | – | – | – | – | – |
| C[C@H](N)C(=O)N[C@@H](CCCCN)C(=O)N[C@@H](CCCNC(=N)N)C(=O)N[C@@H](Cc1c[nH]cn1)C(=O)N[C@@H](Cc1c[nH]cn1)C(=O)NCC(=O)N[C@@H](Cc1ccc(O)cc1)C(=O)N[C@@H](CCCCN)C(=O)N[C@@H](CCCNC(=N)N)C(=O)N[C@@H](CCCCN)C(=O)N[C@@H](Cc1ccccc1)C(=O)N[C@@H](Cc1c[nH]cn1)C(=O)N[C@@H](C)C(=O)N[C@@H](CCCCN)C(=O)N[C@@H](CCCNC(=N)N)C(=O)N[C@@H](Cc1c[nH]cn1)C(=O)N[C@@H](Cc1c[nH]cn1)C(=O)NCC(=O)N[C@@H](Cc1ccc(O)cc1)C(=O)N[C@@H](CCCCN)C(=O)N[C@@H](CCCNC(=N)N)C(=O)N[C@@H](CCCCN)C(=O)N[C@@H](Cc1ccccc1)C(=O)N[C@@H](Cc1c[nH]cn1)C(N)=O [P-113 Double] (H-AKRHHGYKRKFHAKRHHGYKRKFH-NH2) | >200 µM | >200 µM | 5 ± 1 µM (≈ 15.6 µg/mL) | 15 ± 5 µM (≈ 46.7 µg/mL) | 9 ± 3 µM (≈ 28 µg/mL) | – | – | – | – | – | – | – | – |
| C[C@H](N)C(=O)N[C@@H](CCCCN)C(=O)N[C@@H](CCCNC(=N)N)C(=O)N[C@@H](CCCCN)C(=O)N[C@@H](CCCCN)C(=O)NCC(=O)N[C@@H](Cc1ccc(O)cc1)C(=O)N[C@@H](CCCCN)C(=O)N[C@@H](CCCNC(=N)N)C(=O)N[C@@H](CCCCN)C(=O)N[C@@H](Cc1ccccc1)C(=O)N[C@@H](CCCCN)C(N)=O [P-113 H4,5,12K] (H-AKRKKGYKRKFK-NH2) | >200 µM | >200 µM | 14 ± 4 µM (≈ 21.5 µg/mL) | 5 ± 1 µM (≈ 7.68 µg/mL) | >200 µM | – | – | – | – | – | – | – | – |
| C[C@H](N)C(=O)N[C@@H](CCCCN)C(=O)N[C@@H](CCCNC(=N)N)C(=O)N[C@@H](CCCCN)C(=O)N[C@@H](Cc1c[nH]cn1)C(=O)NCC(=O)N[C@@H](Cc1ccc(O)cc1)C(=O)N[C@@H](CCCCN)C(=O)N[C@@H](CCCNC(=N)N)C(=O)N[C@@H](CCCCN)C(=O)N[C@@H](Cc1ccccc1)C(=O)N[C@@H](Cc1c[nH]cn1)C(N)=O [P-113 H4K] (H-AKRKHGYKRKFH-NH2) | – | – | – | – | – | – | – | – | >200 µM | >200 µM | 14 ± 2 µM (≈ 21.8 µg/mL) | 33 ± 8 µM (≈ 51.3 µg/mL) | >200 µM |
| C[C@H](N)C(=O)N[C@@H](CCCCN)C(=O)N[C@@H](CCCNC(=N)N)C(=O)N[C@@H](Cc1c[nH]cn1)C(=O)N[C@@H](Cc1c[nH]cn1)C(=O)NCC(=O)N[C@@H](Cc1ccc(O)cc1)C(=O)N[C@@H](CCCCN)C(=O)N[C@@H](CCCNC(=N)N)C(=O)N[C@@H](CCCCN)C(=O)N[C@@H](Cc1ccccc1)C(=O)N[C@@H](CCCCN)C(N)=O [P-113 H12K] (H-AKRHHGYKRKFK-NH2) | >200 µM | >200 µM | 17 ± 4 µM (≈ 26.4 µg/mL) | 4 ± 1 µM (≈ 6.22 µg/mL) | >200 µM | – | – | – | – | – | – | – | – |
| C[C@H](N)C(=O)N[C@@H](CCCCN)C(=O)N[C@@H](CCCNC(=N)N)C(=O)N[C@@H](Cc1c[nH]cn1)C(=O)N[C@@H](Cc1c[nH]cn1)C(=O)NCC(=O)N[C@@H](Cc1ccc(O)cc1)C(=O)N[C@@H](CCCCN)C(=O)N[C@@H](CCCNC(=N)N)C(=O)N[C@@H](CCCCN)C(=O)N[C@@H](Cc1ccccc1)C(=O)N[C@@H](Cc1c[nH]cn1)C(N)=O [P-113, reference compound] (H-AKRHHGYKRKFH-NH2) | – | – | – | – | – | – | – | – | >200 µM | >200 µM | 14 ± 2 µM (≈ 21.9 µg/mL) | 21 ± 4 µM (≈ 32.8 µg/mL) | >200 µM |
